Read-outs that look alike come from different tables or passages of the source.
What was measured:
hH1R = biological target: T1, hH1R (Homo sapiens, UniProt P35367); test: hH1R radioligand binding, [3H]pyrilamine in CHO K1 cells; settings: protocol of Lazewska et al., 2017
T1 construct: expressed in transfected cells; host or cells: CHO K1 cells

hN neuronal α4β2 = biological target: T2, hN neuronal α4β2 (Homo sapiens, UniProt P17787+P43681); test: hN neuronal α4β2 binding, [3H]cystine in SH-SY5Y cells (Eurofins Cerep)
T2 construct: host or cells: SH-SY5Y cells
T2 sequence (P43681 29-627 limits assumed): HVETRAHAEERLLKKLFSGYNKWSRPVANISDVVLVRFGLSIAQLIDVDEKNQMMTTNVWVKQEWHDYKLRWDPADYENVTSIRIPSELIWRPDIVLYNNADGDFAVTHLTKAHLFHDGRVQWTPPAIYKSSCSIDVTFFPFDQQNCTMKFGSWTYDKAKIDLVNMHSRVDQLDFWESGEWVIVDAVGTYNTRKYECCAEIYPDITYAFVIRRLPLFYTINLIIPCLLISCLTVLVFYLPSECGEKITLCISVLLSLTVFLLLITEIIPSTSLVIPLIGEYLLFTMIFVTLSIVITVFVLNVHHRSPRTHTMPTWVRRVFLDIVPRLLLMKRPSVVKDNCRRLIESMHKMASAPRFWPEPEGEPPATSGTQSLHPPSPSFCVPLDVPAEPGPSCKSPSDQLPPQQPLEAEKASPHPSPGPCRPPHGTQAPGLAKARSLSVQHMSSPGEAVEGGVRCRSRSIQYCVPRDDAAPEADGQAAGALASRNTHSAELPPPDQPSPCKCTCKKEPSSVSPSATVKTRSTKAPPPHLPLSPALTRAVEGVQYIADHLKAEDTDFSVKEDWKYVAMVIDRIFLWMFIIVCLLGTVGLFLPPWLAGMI
T2 sequence (P17787 26-502): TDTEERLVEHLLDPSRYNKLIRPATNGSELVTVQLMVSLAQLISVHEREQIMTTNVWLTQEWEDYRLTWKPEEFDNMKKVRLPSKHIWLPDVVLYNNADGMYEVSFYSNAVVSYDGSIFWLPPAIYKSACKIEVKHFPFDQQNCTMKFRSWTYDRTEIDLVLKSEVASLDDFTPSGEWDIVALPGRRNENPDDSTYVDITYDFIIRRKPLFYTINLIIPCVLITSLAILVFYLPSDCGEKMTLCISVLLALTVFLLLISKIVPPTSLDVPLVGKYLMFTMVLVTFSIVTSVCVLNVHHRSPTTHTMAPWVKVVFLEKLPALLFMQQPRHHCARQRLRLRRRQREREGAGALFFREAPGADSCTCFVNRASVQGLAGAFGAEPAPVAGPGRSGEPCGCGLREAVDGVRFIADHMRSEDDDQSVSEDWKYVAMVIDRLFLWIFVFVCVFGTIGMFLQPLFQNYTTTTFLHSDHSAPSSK

hH2R = biological target: T3, hH2R (Homo sapiens, UniProt P25021); test: hH2R radioligand binding, [125I]APT in CHO cells (Eurofins Cerep)
T3 construct: host or cells: CHO cells
T3 sequence (P25021 whole entry): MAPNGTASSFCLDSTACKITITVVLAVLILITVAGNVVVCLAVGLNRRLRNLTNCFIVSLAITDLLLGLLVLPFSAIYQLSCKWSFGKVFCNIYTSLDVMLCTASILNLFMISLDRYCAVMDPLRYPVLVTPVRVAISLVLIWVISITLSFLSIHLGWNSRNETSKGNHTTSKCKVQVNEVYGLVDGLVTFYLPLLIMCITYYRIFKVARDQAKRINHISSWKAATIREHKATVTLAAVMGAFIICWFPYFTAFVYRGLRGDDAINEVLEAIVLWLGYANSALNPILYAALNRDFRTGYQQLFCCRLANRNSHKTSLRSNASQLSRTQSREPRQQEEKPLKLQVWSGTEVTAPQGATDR

[1] = parameters: method as in Szafarz et al., 2015; settings: ref Szafarz et al., 2015, cited from earlier work
[2] = tested on: MES-induced seizures in mice; test: Maximal electroshock (MES)-induced seizure, duration of tonic hind limb extension (THLE); format: in vivo, C57BL/6J mice; settings: for protection compared with reference drug VPA: DL76 60 mg/kg i.p. vs VPA 300 mg/kg; for mean difference in THLE: DL76 60 mg/kg vs saline-, DL76 7.5, 15, 30 mg/kg groups, p < 0.05
Text: As previously described and with a slight modification in the intensity applied, seizures were elicited in mice with a 50-Hz alternating current of 120 mA intensity ([Kaminski et al., 2015]; [Song et al., 2020]; [Xiao et al., 2021]; [Hua et al., 2023]). The current was applied through ear electrodes for 0.2 s. Protection against the spread of MES-induced convulsion was defined as the abolition of the tonic hind limb extension (THLE) component of the seizure ([Kaminski et al., 2015]; [Song et al., 2020]; [Xiao et al., 2021]; [Hua et al., 2023]). The animals were divided into the following experimental groups, with eight mice in each: the control group injected with saline, the positive control group injected with 300 mg/kg of VPA (the minimal dose of VPA that protected animals against the spread of MES-induced convulsions without mortality in mice) ([Sadek et al., 2015]; [Bastaki et al., 2018]), and four groups that were administered the test compound DL76 at doses of 7.5 mg/kg, 15 mg/kg, 30 mg/kg, or 60 mg/kg. All drugs were administered 30–45 min before the MES challenge. In a further group of eight mice, the most promising and protective dose of DL76 (60 mg/kg, i.p.) was co-injected with RAM (10 mg/kg, i.p.), 30 min apart and 15 min prior to the MES test. Protection against the spread of MES-induced convulsion was defined as the abolition of the THLE component of the convulsion ([Sadek et al., 2015]; [Alachkar et al., 2018]; [Bastaki et al., 2018]).
(§1) Statistical analyses employed SPSS 26.0 (IBM Middle East, Dubai, UAE). Data were presented as means ± SEM. […] Fetal abnormality data were presented as counts and percentages. Fisher’s exact test compared the percentages of abnormalities between the control group (saline) and the different dose groups. All tests were two-tailed, and significance was set at p < 0.05.

several cell lines = tested on: several cell lines; parameters: method as in Canale et al., 2021; settings: ref Canale et al., 2021; cited from earlier work
hH3R = biological target: hH3R; parameters: method as in Lazewska et al. (2006); settings: CHO K1 cells; [125I]Iodoproxyfan binding assay; ref Lazewska et al. (2006); cited from earlier work
hH4R = biological target: hH4R; parameters: method as in Lazewska et al. (2020) and Canale et al. (2021); settings: Sf9 cells; [3H]histamine; ref Lazewska et al. (2020) and Canale et al. (2021); cited from earlier work
C57/B6 mouse embryos = test: Skeletal malformations (double staining of fetuses); format: in vivo, C57BL/6J mice
Text: After isolating fetuses from viscera and skin, they underwent a fat-removal process by immersion in acetone for 1–3 days. The resulting transparent specimens underwent a sequence of glycerin solutions (50% and 80%) before being finally stored in 100% glycerin for observation of malformations using a stereo dissecting microscope ([McLeod, 1980]; [Sterz and Lehmann, 1985]; [Abdulrazzaq et al., 1997]; [Bass et al., 2020]). Following this, specimens were processed and stained with Alizarin Red-S and Alcian blue ([McLeod, 1980]; [Sterz and Lehmann, 1985]; [Abdulrazzaq et al., 1997]; [Bass et al., 2020]) to identify bone and cartilage deformities.
as §1

adrenergic α2 receptor = adrenergic α2 receptor binding, [3H]clonidine in rat cerebral cortex; settings: protocol of Canale et al., 2021
H3R = tested on: H3R; parameters: method as in Lazewska et al. (2006); settings: after p.o. administration to mice; ref Lazewska et al. (2006); cited from earlier work
[3] = parameters: method as in Canale et al., 2021; settings: ref Canale et al., 2021; cited from earlier work

T1 sequence (P35367 whole entry): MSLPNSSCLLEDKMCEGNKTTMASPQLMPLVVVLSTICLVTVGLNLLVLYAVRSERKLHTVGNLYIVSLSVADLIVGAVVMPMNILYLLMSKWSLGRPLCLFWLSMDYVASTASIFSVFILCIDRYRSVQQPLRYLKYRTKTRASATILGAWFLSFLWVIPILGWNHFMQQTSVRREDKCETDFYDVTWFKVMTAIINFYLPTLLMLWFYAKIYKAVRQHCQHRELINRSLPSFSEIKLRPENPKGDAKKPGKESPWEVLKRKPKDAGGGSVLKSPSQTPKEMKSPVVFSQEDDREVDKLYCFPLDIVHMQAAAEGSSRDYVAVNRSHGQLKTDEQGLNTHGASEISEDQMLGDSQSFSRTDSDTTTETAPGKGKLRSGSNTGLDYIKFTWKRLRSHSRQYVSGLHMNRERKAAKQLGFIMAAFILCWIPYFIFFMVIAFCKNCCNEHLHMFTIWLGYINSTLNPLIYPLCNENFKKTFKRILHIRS

## CC(C)(C)c1ccc(OCCCN2CCCCC2)cc1 [DL76, 1-(3-(4-tert-butyl-phenoxy)propyl) piperidine]
hH1R
  Ki: 849 ± 67 nM
hN neuronal α4β2
  inhibition at 1 µM: 3%
hH2R
  inhibition at 1 µM: 2.8%
[1]; dose 3 mg/kg
  AUC0→∞: 298 ng◦h/mL
  C0: 564 ng/mL
[1]; dose 6 mg/kg
  AUC0→∞: 685 ng◦h/mL
  C0: 653 ng/mL
[1]; experimental animals
  concentrations in cortex, hippocampus and striatum higher than in whole brain tissues: 44%
[2]; DL76 7.5, 15, 30 and 60 mg/kg i.p., p = 0.70, 0.685, 0.151, 0.398
  difference of protective effects between male and female mice: no significant differences
[2]; both sexes of adult mice, DL76 30 mg/kg and 60 mg/kg
  THLE compared with reference drug VPA (300 mg/kg, i.p.): no significant differences
[2]; both sexes of adult mice, lower doses of DL76 7.5 mg/kg and 15 mg/kg i.p.
  THLE values compared with VPA: significant difference
[2]; female adult mice, DL76 60 mg/kg + RAM 10 mg/kg i.p., p = 0.17
  mean difference, saline + saline vs. DL76 + RAM: 1.33
[2]; female adult mice, DL76 60 mg/kg i.p. + RAM 10 mg/kg i.p. 15 min before MES
  protection after co-administration of RAM: abrogated
[2]; female adult mice, p = 0.72
  protection compared with reference drug VPA: comparable
[2]; female adult mice, 2nd of three printed values
  mean difference in THLE: 10.63 s
[2]; female adult mice, 3rd of three printed values
  mean difference in THLE: 3.13 s
[2]; female adult mice, DL76 7.5–60 mg/kg i.p.
  protection against MES-induced convulsions: significantly protected
[2]; female and male mice, 7.5, 15, 30 and 60 mg/kg i.p., acute
  protection against MES-induced seizures: significant and dose-dependent protection
[2]; male adult mice, DL76 60 mg/kg + RAM 10 mg/kg i.p., p = 0.094
  mean difference of THLE, saline vs. DL76+RAM: 2.5 s
[2]; male adult mice, DL76 60 mg/kg i.p. + RAM 10 mg/kg i.p. 15 min before MES
  protection after co-injection with H3R agonist RAM: reversed
[2]; male adult mice, DL76 60 mg/kg i.p. vs DL76 (7.5 mg/kg)-treated group
  mean difference of THLE: 7.25 s
[2]; male adult mice, DL76 60 mg/kg i.p. vs DL76 (15 mg/kg)-treated group
  mean difference of THLE: 8.88 s
[2]; male adult mice, DL76 60 mg/kg i.p. vs DL76 (30 mg/kg)-treated group
  mean difference of THLE: 10.75 s
[2]; male adult mice, p = 1.000
  protection compared with reference drug VPA: comparable
[2]; male adult mice, all doses 7.5, 15, 30, 60 mg/kg i.p., all p <0.0001
  protective effect on MES-induced convulsions vs saline: substantial protective effects
Several cell lines
  in vitro toxicity: without inducing in vitro toxicity
hH3R
  Ki: 22 nM
hH4R
  Ki: 66000 nM
C57/B6 mouse embryos; 7.5 mg/kg and 60 mg/kg groups
  femur length: significantly decreased
C57/B6 mouse embryos; 7.5 mg/kg, 30 mg/kg and 60 mg/kg groups
  tibia and fibula lengths vs controls: significantly decreased
C57/B6 mouse embryos; 7.5 mg/kg-, 30 mg/kg- and 60 mg/kg-treated groups
  mean crown-to-rump length vs control groups: decreased significantly
C57/B6 mouse embryos; 30 mg/kg and 60 mg/kg groups
  humerus and ulna lengths: reduced
C57/B6 mouse embryos; 30 mg/kg group only
  radius length: significant decrease
C57/B6 mouse embryos; 30 mg/kg group, p = 0.06
  femur length: non-significant decrease
C57/B6 mouse embryos; DL76-treated group
  incidence of lumbar ribs vs saline-treated control: not significantly different
C57/B6 mouse embryos; DL76-treated groups
  fifth sternebrium, absence or occurrence of hypoplasia, vs control: no significant difference
C57/B6 mouse embryos; all groups
  skull or facial bones: No significant differences
C57/B6 mouse embryos; all the DL-76-treated groups
  vertebrae: number of centra or number of unossified/hypoplastic bodies: no differences
C57/B6 mouse embryos; higher doses of 30 mg/kg, 60 mg/kg and 15 mg/kg × 3
  crown–rump length and lengths of the long bones of the extremities: seemed to be affected
Adrenergic α2 receptor
  Ki: > 5000 nM
H3R
  ED50, in vivo H3R antagonist potency: 2.8 ± 0.4 mg/kg
[3]
  antiparkinsonian effects: antiparkinsonian effects

Reference: article PMC11188305, “Reproductive and fetal toxicity studies of histamine H3 receptor antagonist DL76 used in mice to prevent maximal electroshock-induced seizure” (Frontiers in Pharmacology, 2024)
